Assay results published in patent US6630472B1, “Compounds, pharmaceutical compositions, and methods for stimulating neuronal growth and elongation” (priority 1998, dated 2003).

Tested on: not given
Experiment: not given
Conditions: not given

Row | SMILES | melting point [°C]
1 | COc1cc(C(=O)C(=O)N2C3CCCC2C(=O)N(CCCCc2ccccc2)C3=O)cc(OC)c1OC | 101 to 103

Molecular target: FKBP12 (Homo sapiens, UniProt P62942)
Experiment: rotamase inhibition assay (N-succinyl-Ala-Ala-Pro-Phe-p-nitroanilide, chymotrypsin-coupled)
Assay type: biochemical
Conditions: @ 2.5 μM
Procedure: In the rotamase inhibition assay, isomerization of an artificial substrate N-succinyl-Ala-Ala-Pro-Phe-p-nitroanilide is followed spectrophotometrically. The assay includes the cis form of the substrate, FKBP12, the compound being tested, and chymotrypsin. Chymotrypsin is able to cleave p-nitroaniline from the trans form of the substrate, but not from the cis form. Release of p-nitroaniline is measured spectrophotometrically. Using this assay, various amounts of the FKBP rotamase-inhibiting compounds of formula (I-a) or (I-b) were added to cis-N-succinyl-alanine-alanine-proline-phenylalanine-para-nitroaniline (Bachem, 3132 Kashiwa Street, Torrance, Calif. 90505) in the presence of FKBP12 and chymotrypsin. Spectrophotometric measurements of p-nitroaniline concentrations allowed estimation of the apparent Ki values, which are provided in Table 1 below.

Chain of FKBP12 (P62942 whole entry, species assumed): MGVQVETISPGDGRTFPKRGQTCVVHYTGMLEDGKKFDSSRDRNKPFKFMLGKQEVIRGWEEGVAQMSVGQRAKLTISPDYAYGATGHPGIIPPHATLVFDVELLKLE

Row | SMILES | inhibition at 2.5 µM [%]
2 | CCCC(CCC)C(=O)OC[C@H](CN1CC2CCCC(C1=O)N2C(=O)C(=O)C(C)(C)CC)OCc1ccccc1 (stereo partly shown) [Compound 56] | 40
3 | CCCC(CCC)C(=O)OC[C@@H](CN1CC2CCCC(C1=O)N2C(=O)C(=O)C(C)(C)CC)OCc1ccccc1 (stereo partly shown) [Compound 55] | 40

Same assay, conditions: apparent Ki; NI = no inhibition at the concentrations tested; read-out: Rotamase Ki(app)

Row | Ki [nM] | SMILES
4 | 61 | C=CCC(CC=C)C(=O)OC[C@@H](CN1CC2CCCC(C1=O)N2C(=O)C(=O)C1(COC(=O)COC)CCCC1)OCc1ccccc1 (stereo partly shown) [Compound 108]
5 | > 50000 | COC1(C(=O)C(=O)N2C3CCCC2C2=Cc4cc(C(F)(F)F)cc(C(F)(F)F)c4CN2C3=O)CCCC1 (stereo not shown) [Compound 146]
6 | 663 | C=CCC(CC=C)C(=O)OC[C@H](CN1CC2CCCC(C1=O)N2C(=O)C(=O)C1(COC(C)=O)CCCC1)OCc1ccccc1 (stereo partly shown) [Compound 111]
7 | 84 | COc1cc(C(=O)C(=O)N2C3CCCC2C2=CN(C4CCCC4)C(=O)CN2C3=O)cc(OC)c1OC (stereo not shown) [Compound 117]
8 | 1300 | COC[C@@H]1CC[C@@H](C)[C@](O)(C(=O)C(=O)N2C3CCCC2C(=O)N(Cc2ccc4ccccc4c2)C3)C1 (stereo partly shown) [Compound 138]
9 | 520 | COc1ccc(OC[C@@H]2CC[C@H](N3CC4CCCC(C3=O)N4C(=O)C(=O)c3cc(OC)c(OC)c(OC)c3)C2)cc1 (stereo partly shown) [Compound 153]
10 | 150 | COc1cc(C(=O)C(=O)N2C3CCCC2C2=CN(CC4CC4)C(=O)CN2C3=O)cc(OC)c1OC (stereo not shown) [Compound 122]
11 | 347 | COc1cc(C(=O)C(=O)N2C3C=CN(CCCCc4ccccc4)C(=O)C2CCC3)cc(OC)c1OC (stereo not shown) [Compound 162, 1-[2-Oxo-3-(4-phenyl-butyl)-3,10-diaza-bicyclo[4.3.1]dec-4-en-10-yl]-2-(3,4,5-trimethoxy-phenyl)-ethane-1,2-dione]
12 | 27 | COc1cccc2c1CCN1C(=O)C3CCCC(C21)N3C(=O)C(=O)c1cc(OC)c(OC)c(OC)c1 (stereo not shown) [Compound 12]
13 | 2400 | COCOC1(C(=O)C(=O)N2C3CCC[C@@H]2[C@@H]2Cc4c(cc(OC)cc4OC)CN2C3=O)CCCC1 [Compound 136]
14 | > 40000 | COCOC1(C(=O)C(=O)N2[C@@H]3CCC[C@H]2C(=O)N2CC(=O)N(CC(OC)OC)C[C@H]32)CCCC1 [Compound 119]
15 | 1500 | COc1cc(OC)cc(N2C=C3C4CCCC(C(=O)N3CC2=O)N4C(=O)C(=O)C2(c3ccccc3)CCCC2)c1 (stereo not shown) [Compound 156]
16 | 2500 | COC[C@@H]1CC[C@@H](C)[C@](O)(C(=O)C(=O)N2C3CCCC2C(=O)N(CCCCc2ccccc2)C3)C1 (stereo partly shown) [Compound 120]
17 | > 20000 | COC(CN1C[C@@H]2[C@H]3CCC[C@@H](C(=O)N2CC1=O)N3C(=O)C(=O)C1(OC)CCCC1)OC [Compound 115]
18 | 355 | COc1cc(C(=O)C(=O)N2C3CCCC2C(=O)N(Cc2ccc4ccccc4c2)C3)cc(OC)c1OC (stereo not shown) [Compound 139]
19 | 190 | COc1cc(OC)cc(N2C=C3C4CCCC(C(=O)N3CC2=O)N4C(=O)C(=O)C2(COC(C)=O)CCCC2)c1 (stereo not shown) [Compound 143]
20 | 780 | CC(=O)OCC1(C(=O)C(=O)N2C3CCCC2C2=CN(C4CCCC4)C(=O)CN2C3=O)CCCC1 (stereo not shown) [Compound 121]
21 | 2800 | COCOCC1(C(=O)C(=O)N2C3CCCC2C2=CN(C4CCCC4)C(=O)CN2C3=O)CCCC1 (stereo not shown) [Compound 152]
22 | 530 | COc1cc(OC)cc(N2C=C3C4CCCC(C(=O)N3CC2=O)N4C(=O)C(=O)C2(OC)CCCC2)c1 (stereo not shown) [Compound 151]
23 | 1200 | CCC(C)(C)C(=O)C(=O)N1C2CCCC1C1=CN(CC3CC3)C(=O)CN1C2=O (stereo not shown) [Compound 123]
24 | 1000 | CCC(C)(C)C(=O)C(=O)N1C2CCCC1C1=CN(C3CCCC3)C(=O)CN1C2=O (stereo not shown) [Compound 118]

Row | SMILES | Ki [nM]
25 | COc1ccc(CN2C(=O)C3CCCC(C2C#N)N3C(=O)C(=O)c2cc(OC)c(OC)c(OC)c2)cc1 (stereo not shown) [Compound 80] | 1800
26 | CCCC(CCC)C(=O)OC[C@H](CN1CC2CCCC(C1=O)N2C(=O)C(=O)c1cc(OC)c(OC)c(OC)c1)OCc1ccccc1 (stereo partly shown) [Compound 47] | 200
27 | COc1cc(C(=O)C(=O)N2C3CCCC2C(=O)N(CCCCc2ccccc2)C3=O)cc(OC)c1OC [Compound 35] | 73
28 | COC1(C(=O)C(=O)N2C3CCCC2C(=O)N(CCCCc2ccccc2)C3)CCCC1 (stereo not shown) [Compound 100] | 627
29 | COc1cc(C(=O)C(=O)N2C3CCCC2C(=O)N(C[C@@H](CO)OCc2ccccc2)C3)cc(OC)c1OC (stereo partly shown) [Compound 50] | 560
30 | COc1cc(C(=O)C(=O)N2C3CCCC2C(=O)N(C[C@H](CO)OCc2ccccc2)C3)cc(OC)c1OC (stereo partly shown) [Compound 45] | 580
31 | CCC(CC)(COCOC)C(=O)C(=O)N1C2CCCC1C(=O)N(CCCCc1ccccc1)C2 (stereo not shown) [Compound 83] | 860
32 | COC(OC)C(=O)OC1(C(=O)C(=O)N2C3CCCC2C(=O)N(CCCCc2ccccc2)C3)CCCC1 (stereo not shown) [Compound 102] | 690
33 | COc1ccc2c(c1)C(OC)C1C3CCCC(C(=O)N1C2)N3C(=O)C(=O)c1cc(OC)c(OC)c(OC)c1 (stereo not shown) [Compound 74] | 111
34 | COCOCC(C)(C)C(=O)C(=O)N1C2CCCC1C(=O)N(CCCCc1ccccc1)C2 (stereo not shown) [Compound 63] | 3100
35 | CCC(CC)(COC(C)=O)C(=O)C(=O)N1C2CCCC1C(=O)N(CCCCc1ccccc1)C2 (stereo not shown) [Compound 61] | 790
36 | CC(=O)OCC1(C(=O)C(=O)N2C3CCCC2C(=O)N(CCCCc2ccccc2)C3)CCCCC1 (stereo not shown) [Compound 86] | 1300
37 | COc1ccc2c(c1)C1C3CCCC(C(=O)N1CC2)N3C(=O)C(=O)C1(COC(C)=O)CCCC1 (stereo not shown) [Compound 82] | 3000
38 | COCOCC1(C(=O)C(=O)N2C3CCCC2C(=O)N(CCCCc2ccccc2)C3)CCCC1 (stereo not shown) [Compound 85] | 324
39 | CC(=O)OCC1(C(=O)C(=O)N2C3CCCC2C(=O)N(CCCCc2ccccc2)C3)CCCC1 (stereo not shown) [Compound 62] | 160
40 | COc1cc(C(=O)C(=O)N2C3CCCC2C2OCC(COCc4ccccc4)N2C3=O)cc(OC)c1OC (stereo not shown) [Compound 42] | 2200
41 | CCC(C)(C)C(=O)C(=O)N1C2CCCC1C(=O)N([C@H]1CCC[C@@H]1OCc1ccccc1)C2 (stereo partly shown) [Compound 77] | 20500
42 | CCC(C)(C)C(=O)C(=O)N1C2CCCC1C(=O)N(C1CCCCC1)C2 (stereo not shown) [Compound 57] | 74000
43 | COC(COC1(C(=O)C(=O)N2C3CCCC2C(=O)N(CCCCc2ccccc2)C3)CCCC1)OC (stereo not shown) [Compound 103] | 1200
